Assay results from ChEMBL document CHEMBL1147701, “Novel 4-anilinoquinazolines with C-6 carbon-linked side chains: synthesis and structure-activity relationship of a series of potent, orally active, EGF receptor tyrosine kinase inhibitors” (Bioorg Med Chem Lett, 2006).

Target: Glycogen synthase kinase-3 beta (Homo sapiens, UniProt P49841)
Test: Inhibition of GSK3-beta

Chain of Glycogen synthase kinase-3 beta (P49841 whole entry): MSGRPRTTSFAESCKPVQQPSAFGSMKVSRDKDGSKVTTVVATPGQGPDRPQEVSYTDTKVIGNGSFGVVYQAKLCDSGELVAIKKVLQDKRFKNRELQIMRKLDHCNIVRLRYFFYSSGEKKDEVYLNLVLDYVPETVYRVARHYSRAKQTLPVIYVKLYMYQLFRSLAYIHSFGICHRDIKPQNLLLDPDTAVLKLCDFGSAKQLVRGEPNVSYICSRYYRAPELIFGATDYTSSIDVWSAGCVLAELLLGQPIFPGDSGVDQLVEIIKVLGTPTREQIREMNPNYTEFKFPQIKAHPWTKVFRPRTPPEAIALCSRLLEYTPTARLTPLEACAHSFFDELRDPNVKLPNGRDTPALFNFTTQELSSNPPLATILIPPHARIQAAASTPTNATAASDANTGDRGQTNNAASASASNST

IC50, > 10 µM:
COc1cc2ncnc(Nc3cccc(Cl)c3F)c2cc1CN1CCN(C)CC1C(N)=O (stereo not given)
COc1cc2ncnc(Nc3cccc(Cl)c3F)c2cc1CN1CCCC[C@@H]1C(N)=O
COc1cc2ncnc(Nc3ccc(F)c(Cl)c3)c2cc1CN1CCC[C@@H]1C(N)=O
COc1cc2ncnc(Nc3cccc(Cl)c3F)c2cc1CN1CC(C(N)=O)C1
COc1cc2ncnc(Nc3cccc(Cl)c3F)c2cc1CN1C[C@H](OC)C[C@@H]1C(N)=O

Target: c-Jun N-terminal kinase, JNK (Homo sapiens, UniProt P45983+P53779+P45984)
Test: Inhibition of JNK
Assay type: protein assay

IC50, > 10 µM:
COc1cc2ncnc(Nc3cccc(Cl)c3F)c2cc1CN1CCN(C)CC1C(N)=O (stereo not given)
COc1cc2ncnc(Nc3cccc(Cl)c3F)c2cc1CN1CCCC[C@@H]1C(N)=O
COc1cc2ncnc(Nc3ccc(F)c(Cl)c3)c2cc1CN1CCC[C@@H]1C(N)=O
COc1cc2ncnc(Nc3cccc(Cl)c3F)c2cc1CN1CC(C(N)=O)C1
COc1cc2ncnc(Nc3cccc(Cl)c3F)c2cc1CN1C[C@H](OC)C[C@@H]1C(N)=O

Target: MAP kinase p38 (Homo sapiens, UniProt O15264+Q15759+Q16539+P53778)

IC50, > 10 µM:
COc1cc2ncnc(Nc3cccc(Cl)c3F)c2cc1CN1CCN(C)CC1C(N)=O (stereo not given)
COc1cc2ncnc(Nc3cccc(Cl)c3F)c2cc1CN1CCCC[C@@H]1C(N)=O
COc1cc2ncnc(Nc3ccc(F)c(Cl)c3)c2cc1CN1CCC[C@@H]1C(N)=O

Target: cAMP-dependent protein kinase (PKA) (Homo sapiens, UniProt P22694+P17612+P22612)
Test: Inhibition of PKA
Assay type: protein assay

IC50, > 10 µM:
COc1cc2ncnc(Nc3cccc(Cl)c3F)c2cc1CN1CCN(C)CC1C(N)=O (stereo not given)
COc1cc2ncnc(Nc3cccc(Cl)c3F)c2cc1CN1CCCC[C@@H]1C(N)=O
COc1cc2ncnc(Nc3ccc(F)c(Cl)c3)c2cc1CN1CCC[C@@H]1C(N)=O
COc1cc2ncnc(Nc3cccc(Cl)c3F)c2cc1CN1CC(C(N)=O)C1

Target: T1, Serine/threonine-protein kinase Sgk1 (Homo sapiens, UniProt O00141)
T1 sequence (O00141 whole entry): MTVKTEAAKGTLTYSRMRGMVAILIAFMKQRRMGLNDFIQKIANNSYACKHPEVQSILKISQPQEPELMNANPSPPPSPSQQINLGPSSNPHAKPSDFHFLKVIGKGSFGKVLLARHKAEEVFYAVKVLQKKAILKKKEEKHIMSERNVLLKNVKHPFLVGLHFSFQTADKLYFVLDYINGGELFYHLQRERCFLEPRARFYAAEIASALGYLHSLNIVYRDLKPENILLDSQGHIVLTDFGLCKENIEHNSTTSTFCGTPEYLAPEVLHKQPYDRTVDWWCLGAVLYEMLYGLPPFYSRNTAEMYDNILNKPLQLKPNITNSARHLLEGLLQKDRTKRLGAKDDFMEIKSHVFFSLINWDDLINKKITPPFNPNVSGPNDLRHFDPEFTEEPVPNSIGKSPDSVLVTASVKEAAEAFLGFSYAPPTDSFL
Test: Inhibition of SGK

IC50, > 10 µM:
COc1cc2ncnc(Nc3cccc(Cl)c3F)c2cc1CN1CCN(C)CC1C(N)=O (stereo not given)
COc1cc2ncnc(Nc3cccc(Cl)c3F)c2cc1CN1CCCC[C@@H]1C(N)=O
COc1cc2ncnc(Nc3ccc(F)c(Cl)c3)c2cc1CN1CCC[C@@H]1C(N)=O
COc1cc2ncnc(Nc3cccc(Cl)c3F)c2cc1CN1CC(C(N)=O)C1
COc1cc2ncnc(Nc3cccc(Cl)c3F)c2cc1CN1C[C@H](OC)C[C@@H]1C(N)=O

Target: Vascular endothelial growth factor receptor 2 (Homo sapiens, UniProt P35968)
Sequence (P35968 whole entry): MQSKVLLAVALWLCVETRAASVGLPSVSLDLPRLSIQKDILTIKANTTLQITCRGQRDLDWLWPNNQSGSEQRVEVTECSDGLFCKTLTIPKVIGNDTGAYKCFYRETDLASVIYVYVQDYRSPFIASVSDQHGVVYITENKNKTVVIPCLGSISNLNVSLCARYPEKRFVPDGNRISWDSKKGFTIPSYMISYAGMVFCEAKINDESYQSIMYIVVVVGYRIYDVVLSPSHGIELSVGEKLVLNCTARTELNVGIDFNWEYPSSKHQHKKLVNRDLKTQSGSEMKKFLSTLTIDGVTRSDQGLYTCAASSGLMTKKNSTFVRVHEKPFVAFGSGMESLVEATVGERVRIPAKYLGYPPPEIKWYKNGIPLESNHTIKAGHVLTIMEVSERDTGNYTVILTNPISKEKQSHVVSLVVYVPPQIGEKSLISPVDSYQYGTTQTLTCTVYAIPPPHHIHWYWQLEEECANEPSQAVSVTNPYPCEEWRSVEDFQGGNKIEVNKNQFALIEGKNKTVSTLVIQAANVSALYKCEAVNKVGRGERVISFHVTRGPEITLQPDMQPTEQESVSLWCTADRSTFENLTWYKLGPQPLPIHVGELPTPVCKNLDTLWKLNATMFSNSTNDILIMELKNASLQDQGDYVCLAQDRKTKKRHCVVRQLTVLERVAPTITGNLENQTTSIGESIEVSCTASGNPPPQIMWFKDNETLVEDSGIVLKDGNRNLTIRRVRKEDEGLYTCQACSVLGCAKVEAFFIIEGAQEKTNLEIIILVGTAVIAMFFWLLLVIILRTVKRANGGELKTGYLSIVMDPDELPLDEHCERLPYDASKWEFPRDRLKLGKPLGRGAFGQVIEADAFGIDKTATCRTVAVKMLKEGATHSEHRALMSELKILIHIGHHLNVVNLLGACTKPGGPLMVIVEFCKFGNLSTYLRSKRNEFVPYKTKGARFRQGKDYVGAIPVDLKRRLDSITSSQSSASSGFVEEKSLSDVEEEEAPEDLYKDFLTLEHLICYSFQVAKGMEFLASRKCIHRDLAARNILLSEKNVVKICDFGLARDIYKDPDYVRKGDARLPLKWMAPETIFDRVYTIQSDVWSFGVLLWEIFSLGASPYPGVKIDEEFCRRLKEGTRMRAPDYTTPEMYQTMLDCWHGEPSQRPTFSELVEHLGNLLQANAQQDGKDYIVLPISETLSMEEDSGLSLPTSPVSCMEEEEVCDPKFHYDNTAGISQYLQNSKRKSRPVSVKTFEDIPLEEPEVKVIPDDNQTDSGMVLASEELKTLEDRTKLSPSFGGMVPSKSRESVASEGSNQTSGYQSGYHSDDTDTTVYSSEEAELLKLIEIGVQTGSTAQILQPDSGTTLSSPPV

IC50, > 10 µM:
COc1cc2ncnc(Nc3cccc(Cl)c3F)c2cc1CN1CCN(C)CC1C(N)=O (stereo not given)
COc1cc2ncnc(Nc3cccc(Cl)c3F)c2cc1CN1CCCC[C@@H]1C(N)=O
COc1cc2ncnc(Nc3ccc(F)c(Cl)c3)c2cc1CN1CCC[C@@H]1C(N)=O
COc1cc2ncnc(Nc3cccc(Cl)c3F)c2cc1CN1CC(C(N)=O)C1
COc1cc2ncnc(Nc3cccc(Cl)c3F)c2cc1CN1C[C@H](OC)C[C@@H]1C(N)=O

Target: Tyrosine-protein kinase Lck (Homo sapiens, UniProt P06239)
Sequence (P06239 whole entry): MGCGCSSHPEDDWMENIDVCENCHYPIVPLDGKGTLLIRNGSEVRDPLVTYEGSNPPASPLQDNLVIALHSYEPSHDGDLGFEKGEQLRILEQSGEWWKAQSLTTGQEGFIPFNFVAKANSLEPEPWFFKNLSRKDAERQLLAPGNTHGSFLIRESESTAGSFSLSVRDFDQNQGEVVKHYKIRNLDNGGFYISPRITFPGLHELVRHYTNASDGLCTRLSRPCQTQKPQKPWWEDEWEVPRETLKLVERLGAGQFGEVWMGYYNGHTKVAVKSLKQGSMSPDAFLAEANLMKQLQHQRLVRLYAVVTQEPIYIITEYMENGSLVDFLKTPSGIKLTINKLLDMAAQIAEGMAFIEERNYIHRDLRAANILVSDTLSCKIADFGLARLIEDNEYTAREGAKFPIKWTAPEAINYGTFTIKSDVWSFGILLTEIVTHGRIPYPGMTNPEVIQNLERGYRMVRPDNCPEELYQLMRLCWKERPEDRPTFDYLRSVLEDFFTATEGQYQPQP

IC50, > 10 µM:
COc1cc2ncnc(Nc3cccc(Cl)c3F)c2cc1CN1CCCC[C@@H]1C(N)=O

Target: Mitogen-activated protein kinase 1 (Homo sapiens, UniProt P28482)
Test: Inhibition of MAPK

Chain of Mitogen-activated protein kinase 1 (P28482 whole entry): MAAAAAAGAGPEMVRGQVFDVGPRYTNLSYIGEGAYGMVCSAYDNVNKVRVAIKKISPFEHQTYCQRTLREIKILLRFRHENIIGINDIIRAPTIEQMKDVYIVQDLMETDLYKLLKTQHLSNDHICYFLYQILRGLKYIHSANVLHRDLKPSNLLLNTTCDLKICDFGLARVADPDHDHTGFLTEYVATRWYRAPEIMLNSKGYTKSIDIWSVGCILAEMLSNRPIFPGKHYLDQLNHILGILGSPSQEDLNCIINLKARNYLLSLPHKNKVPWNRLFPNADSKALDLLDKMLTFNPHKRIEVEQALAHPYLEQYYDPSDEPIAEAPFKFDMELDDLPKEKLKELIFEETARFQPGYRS

IC50, > 10 µM:
COc1cc2ncnc(Nc3cccc(Cl)c3F)c2cc1CN1CCN(C)CC1C(N)=O (stereo not given)
COc1cc2ncnc(Nc3cccc(Cl)c3F)c2cc1CN1CCCC[C@@H]1C(N)=O
COc1cc2ncnc(Nc3ccc(F)c(Cl)c3)c2cc1CN1CCC[C@@H]1C(N)=O
COc1cc2ncnc(Nc3cccc(Cl)c3F)c2cc1CN1CC(C(N)=O)C1
COc1cc2ncnc(Nc3cccc(Cl)c3F)c2cc1CN1C[C@H](OC)C[C@@H]1C(N)=O

Target: Rho-associated protein kinase 2 (Homo sapiens, UniProt O75116)
Test: Inhibition of ROCK2

Chain of Rho-associated protein kinase 2 (O75116 whole entry): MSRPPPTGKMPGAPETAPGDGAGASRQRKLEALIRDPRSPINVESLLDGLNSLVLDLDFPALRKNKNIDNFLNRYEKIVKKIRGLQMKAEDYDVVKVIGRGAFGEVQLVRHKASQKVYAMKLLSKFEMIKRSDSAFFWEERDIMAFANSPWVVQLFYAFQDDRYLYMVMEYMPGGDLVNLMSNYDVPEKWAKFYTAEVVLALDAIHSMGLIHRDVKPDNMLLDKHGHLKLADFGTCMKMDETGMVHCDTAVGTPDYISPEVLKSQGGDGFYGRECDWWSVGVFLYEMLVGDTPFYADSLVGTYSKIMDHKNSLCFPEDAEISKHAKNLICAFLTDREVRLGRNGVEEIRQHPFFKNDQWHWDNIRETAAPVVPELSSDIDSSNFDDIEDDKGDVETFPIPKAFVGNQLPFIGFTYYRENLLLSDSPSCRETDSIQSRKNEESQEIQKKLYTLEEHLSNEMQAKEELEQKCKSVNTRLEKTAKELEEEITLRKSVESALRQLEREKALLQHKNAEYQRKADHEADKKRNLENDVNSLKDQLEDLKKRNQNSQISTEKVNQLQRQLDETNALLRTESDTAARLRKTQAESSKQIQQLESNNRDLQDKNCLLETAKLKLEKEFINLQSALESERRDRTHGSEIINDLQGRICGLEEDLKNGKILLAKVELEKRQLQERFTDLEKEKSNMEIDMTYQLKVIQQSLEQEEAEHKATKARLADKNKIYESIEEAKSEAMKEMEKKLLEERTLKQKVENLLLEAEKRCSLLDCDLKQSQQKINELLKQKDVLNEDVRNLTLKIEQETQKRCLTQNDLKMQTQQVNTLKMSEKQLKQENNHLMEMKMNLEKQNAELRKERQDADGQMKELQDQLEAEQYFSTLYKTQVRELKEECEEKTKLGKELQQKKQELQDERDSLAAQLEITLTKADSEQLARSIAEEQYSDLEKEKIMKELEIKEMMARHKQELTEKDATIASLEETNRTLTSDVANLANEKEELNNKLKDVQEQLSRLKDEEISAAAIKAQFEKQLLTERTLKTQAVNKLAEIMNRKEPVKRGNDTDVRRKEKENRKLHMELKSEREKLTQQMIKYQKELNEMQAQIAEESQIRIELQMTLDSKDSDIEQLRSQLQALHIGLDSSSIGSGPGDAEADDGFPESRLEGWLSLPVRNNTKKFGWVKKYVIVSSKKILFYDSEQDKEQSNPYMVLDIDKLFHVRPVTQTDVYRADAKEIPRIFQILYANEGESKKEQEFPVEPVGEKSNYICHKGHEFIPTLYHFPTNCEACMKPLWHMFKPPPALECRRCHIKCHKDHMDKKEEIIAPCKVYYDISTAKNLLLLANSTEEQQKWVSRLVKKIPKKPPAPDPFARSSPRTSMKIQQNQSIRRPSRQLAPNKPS

IC50, > 10 µM:
COc1cc2ncnc(Nc3cccc(Cl)c3F)c2cc1CN1CCN(C)CC1C(N)=O (stereo not given)
COc1cc2ncnc(Nc3cccc(Cl)c3F)c2cc1CN1CCCC[C@@H]1C(N)=O
COc1cc2ncnc(Nc3ccc(F)c(Cl)c3)c2cc1CN1CCC[C@@H]1C(N)=O
COc1cc2ncnc(Nc3cccc(Cl)c3F)c2cc1CN1CC(C(N)=O)C1
COc1cc2ncnc(Nc3cccc(Cl)c3F)c2cc1CN1C[C@H](OC)C[C@@H]1C(N)=O

Target: AMP-activated protein kinase, AMPK
Test: Inhibition of AMPK
Assay type: protein-complex assay

IC50, > 10 µM:
COc1cc2ncnc(Nc3cccc(Cl)c3F)c2cc1CN1CCN(C)CC1C(N)=O (stereo not given)
COc1cc2ncnc(Nc3cccc(Cl)c3F)c2cc1CN1CCCC[C@@H]1C(N)=O
COc1cc2ncnc(Nc3ccc(F)c(Cl)c3)c2cc1CN1CCC[C@@H]1C(N)=O
COc1cc2ncnc(Nc3cccc(Cl)c3F)c2cc1CN1CC(C(N)=O)C1
COc1cc2ncnc(Nc3cccc(Cl)c3F)c2cc1CN1C[C@H](OC)C[C@@H]1C(N)=O

Target: Proto-oncogene tyrosine-protein kinase Src (Homo sapiens, UniProt P12931)
Test: Inhibition of Src

Chain of Proto-oncogene tyrosine-protein kinase Src (P12931 2-536 limits assumed): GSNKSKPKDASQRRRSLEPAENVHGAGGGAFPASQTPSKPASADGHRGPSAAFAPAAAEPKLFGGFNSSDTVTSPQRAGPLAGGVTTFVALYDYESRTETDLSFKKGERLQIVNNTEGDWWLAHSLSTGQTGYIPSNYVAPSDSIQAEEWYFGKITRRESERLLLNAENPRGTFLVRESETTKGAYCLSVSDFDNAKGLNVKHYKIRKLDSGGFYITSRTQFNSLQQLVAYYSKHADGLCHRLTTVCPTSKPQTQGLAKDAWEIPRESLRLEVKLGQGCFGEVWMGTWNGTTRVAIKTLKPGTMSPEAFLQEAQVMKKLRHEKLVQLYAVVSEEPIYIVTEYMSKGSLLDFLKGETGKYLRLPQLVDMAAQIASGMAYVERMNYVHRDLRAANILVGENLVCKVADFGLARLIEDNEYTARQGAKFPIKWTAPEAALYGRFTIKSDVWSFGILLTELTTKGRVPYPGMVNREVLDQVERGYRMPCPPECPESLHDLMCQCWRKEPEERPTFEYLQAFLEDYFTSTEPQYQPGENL

IC50, > 10 µM:
COc1cc2ncnc(Nc3cccc(Cl)c3F)c2cc1CN1CCN(C)CC1C(N)=O (stereo not given)
COc1cc2ncnc(Nc3cccc(Cl)c3F)c2cc1CN1CCCC[C@@H]1C(N)=O
COc1cc2ncnc(Nc3ccc(F)c(Cl)c3)c2cc1CN1CCC[C@@H]1C(N)=O
COc1cc2ncnc(Nc3cccc(Cl)c3F)c2cc1CN1CC(C(N)=O)C1
COc1cc2ncnc(Nc3cccc(Cl)c3F)c2cc1CN1C[C@H](OC)C[C@@H]1C(N)=O

Target: T2, Serine/threonine-protein kinase Chk1 (Homo sapiens, UniProt O14757)
T2 sequence (O14757 whole entry): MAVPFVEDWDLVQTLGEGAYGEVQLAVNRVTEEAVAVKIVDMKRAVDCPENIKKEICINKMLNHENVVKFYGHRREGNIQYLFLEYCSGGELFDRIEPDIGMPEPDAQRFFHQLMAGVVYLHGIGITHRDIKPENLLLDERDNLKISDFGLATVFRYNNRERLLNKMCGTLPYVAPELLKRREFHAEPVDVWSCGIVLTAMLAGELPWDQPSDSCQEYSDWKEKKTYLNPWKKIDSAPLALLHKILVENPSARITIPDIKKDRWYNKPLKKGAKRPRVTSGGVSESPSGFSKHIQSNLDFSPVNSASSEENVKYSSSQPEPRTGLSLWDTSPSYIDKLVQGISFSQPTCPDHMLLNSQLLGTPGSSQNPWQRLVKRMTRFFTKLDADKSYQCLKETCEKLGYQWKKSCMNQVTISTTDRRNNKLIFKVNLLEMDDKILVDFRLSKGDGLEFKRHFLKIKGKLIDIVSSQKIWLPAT
Test: Inhibition of CHK1

IC50, > 10 µM:
COc1cc2ncnc(Nc3cccc(Cl)c3F)c2cc1CN1CCN(C)CC1C(N)=O (stereo not given)
COc1cc2ncnc(Nc3cccc(Cl)c3F)c2cc1CN1CCCC[C@@H]1C(N)=O
COc1cc2ncnc(Nc3ccc(F)c(Cl)c3)c2cc1CN1CCC[C@@H]1C(N)=O
COc1cc2ncnc(Nc3cccc(Cl)c3F)c2cc1CN1CC(C(N)=O)C1
COc1cc2ncnc(Nc3cccc(Cl)c3F)c2cc1CN1C[C@H](OC)C[C@@H]1C(N)=O

Test system: not listed separately
Test: Inhibition of CDK

IC50, > 10 µM:
COc1cc2ncnc(Nc3cccc(Cl)c3F)c2cc1CN1CCCC[C@@H]1C(N)=O
COc1cc2ncnc(Nc3ccc(F)c(Cl)c3)c2cc1CN1CCC[C@@H]1C(N)=O
